Experimental data published in patent US20210261621A1, “Preparation of Dilipid Polymixins and Use Thereof as Antimicrobial Adjuvants” (priority 2018, published 2021).
≈ marks a conversion by molar mass, not a printed value. Read-outs that look alike come from different tables or passages of the source. Positions of bridges follow the written chain, without caps; N, C: chain ends. Non-standard residues stand in square brackets, D forms with d. Residues, ends and D or L forms follow the SMILES beside them. *: point of attachment. Benzoyl(4-Ph) = O=C(c1ccc(-c2ccccc2)cc1)*; Dab = NCC[C@H](N)C(=O)O

Experiments:
[1] = tested on: E. coli CANWARD-2011 97615; assay type: cell-based, Escherichia coli
Description: Bacterial strains were either obtained from the American Type Culture Collection (ATCC), Canadian National Intensive Care Unit (CAN-ICU) surveillance study or the Canadian Ward Surveillance (CANWARD) study. Strains from both CAN-ICU and CANWARD are isolates recovered from patients diagnosed with a presumed infectious disease that were admitted in a participating medical center across Canada. Efflux-deficient strain PAO200 (lacking MexAB-OprM efflux system) and PA0750 (lacking MexAB-OprM, MexCD-OprJ, MexEF-OprN, MexJK and MexXY efflux systems, and the outer membrane protein OpmH) were kindly gifted by Dr. Ayush Kumar (University of Manitoba).
The in vitro antibacterial activity of the compounds studied were assessed by broth microdilution susceptibility testing following CLSI guidelines. Bacterial cultures were grown overnight prior to the assay. The overnight grown cultures were diluted in saline to 0.5 McFarland turbidity, followed by 1:50 dilution in Mueller-Hinton broth (MHB) for inoculation to a final concentration of approximately 5×10^5 colony forming units/mL. Testing was performed on 96-well plates where the tested compounds were 2-fold serially diluted in MHB and incubated with equal volumes of bacterial inoculum at 37° C. for 18 h. […] Wells containing MHB with or without bacterial cells were used as positive or negative control, respectively.

pig erythrocytes = test: Hemolytic assay; details: for % Hemolysis at 512 μg/mL of polymyxin / MHC5, minimum concentration that resulted in 5% red blood cell hemolysis: pig erythrocytes, 1 h at 37° C.
[2] = tested on: P. aeruginosa CANWARD-2011 96846; assay type: cell-based, Pseudomonas aeruginosa
Method in brief: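 Broth microdilution per CLSI in Mueller-Hinton broth, with 2-fold serial compound dilutions and inoculum of approximately 5×10^5 CFU/mL from overnight cultures. Plates were incubated 18 h at 37° C.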

P. aeruginosa PAO1 = tested on: P. aeruginosa PAO1; design: MICDrug / MICDrug in combo / MIC of adjuvant in combo: unit not given beside the values
Method: The potential of the dilipid polymyxins to serve as an adjuvant in combination with other antibiotics was evaluated against P. aeruginosa PAO1 strain (Tables 4 and 7-12). […] Checkerboard assays were performed with the dilipid polymyxins in combination with twenty-one clinically-used antibiotics. The panel included representatives from the β-lactam, carbapenem, tetracycline, aminoglycoside and fluoroquinolone antibiotic families. Other agents that are used to treat Gram-negative bacterial infection such as fosfomycin, trimethoprim and chloramphenicol were also included. […] Fractional inhibitory concentration (FIC) index was calculated for each combination to measure potential synergism between the two agents. FIC was obtained by dividing the MIC of antibiotic/adjuvant in combination by the MIC of antibiotic/adjuvant alone, while FIC index was calculated by the summation of FIC indices for the antibiotic and adjuvant. An FIC index of ≤0.5, 0.5<x≤4, or >4 denotes for synergistic, additive or antagonistic interaction, respectively. Initially, we assessed the adjuvant properties of PMBN against the panel of 21 antibiotics.
The assay was performed on 96-well plates as previously described. Briefly, the antibiotic at study was 2-fold serially diluted along the x-axis, while the adjuvant was 2-fold serially diluted along the y-axis to create a matrix in which each well consists of a combination of both at different concentrations. Overnight grown bacterial cultures were diluted in saline to 0.5 McFarland turbidity, followed by 1:50 dilution in MHB and inoculation on each well to a final concentration of approximately 5×10^5 colony forming units/mL. Wells containing only MHB with or without bacterial cells were used as positive or negative control, respectively. […] The fractional inhibitory concentration (FIC) of the antibiotic was calculated via dividing the MIC of antibiotic in the presence of adjuvant by the MIC of antibiotic alone. Similarly, the FIC of adjuvant was calculated via dividing the MIC of adjuvant in the presence of antibiotic by the MIC of adjuvant alone. The FIC index was obtained by the summation of both FIC values. The FIC index was then interpreted as synergistic, additive, or antagonistic for values of ≤0.5, 0.5<x<4, or ≥4, respectively.

[3] = combination with Chloramphenicol

CC(C)C[C@@H]1NC(=O)[C@@H](Cc2ccccc2)NC(=O)[C@H](CCN)NC(=O)[C@@H](NC(=O)[C@H](CCN)NC(=O)[C@@H](NC(=O)[C@H](CCNC(=O)c2ccc(-c3ccccc3)cc2)NC(=O)c2ccc(-c3ccccc3)cc2)[C@@H](C)O)CCNC(=O)[C@H]([C@@H](C)O)NC(=O)[C@H](CCN)NC(=O)[C@H](CCN)NC1=O [Compound 5, Dibiphenyl-4-Carboxylic Acid (Di-Biphenyl) Polymyxin] ({Benzoyl(4-Ph)}-[Dab](Benzoyl(4-Ph))T[Dab][Dab][Dab][dF]L[Dab][Dab]T; lactam 4-C)
MIC [1]: 32 µg/mL (≈ 22.5 µM)
% Hemolysis at 512 μg/mL of polymyxin (pig erythrocytes): 13.1 ± 1.4%
MHC5, minimum concentration that resulted in 5% red blood cell hemolysis (pig erythrocytes): 128 µg/mL
MIC [2]: 64 µg/mL (≈ 45 µM)
MIC of adjuvant alone (MIC1, MIC2, MIC3, MIC4, MIC5, MICPMBN) (P. aeruginosa PAO1; adjuvant alone, one value per checkerboard, in µg/mL): 16
FIC index (P. aeruginosa PAO1; combination with Aztreonam): 0.62
Interpretation (P. aeruginosa PAO1; combination with Aztreonam): Additive (An FIC index of ≤0.5, 0.5<x≤4, or >4 denotes for synergistic, additive or antagonistic interaction, respectively)
FIC index (P. aeruginosa PAO1; combination with Ceftazidime): 0.62
Interpretation (P. aeruginosa PAO1; combination with Ceftazidime): Additive (An FIC index of ≤0.5, 0.5<x≤4, or >4 denotes for synergistic, additive or antagonistic interaction, respectively)
FIC index (P. aeruginosa PAO1; [3]): 0.50
Interpretation (P. aeruginosa PAO1; [3]): Synergy (An FIC index of ≤0.5, 0.5<x≤4, or >4 denotes for synergistic, additive or antagonistic interaction, respectively)
FIC index (P. aeruginosa PAO1; combination with Ciprofloxacin): 1.00
Interpretation (P. aeruginosa PAO1; combination with Ciprofloxacin): Additive (An FIC index of ≤0.5, 0.5<x≤4, or >4 denotes for synergistic, additive or antagonistic interaction, respectively)
FIC index (P. aeruginosa PAO1; combination with Clindamycin): 0.53
Interpretation (P. aeruginosa PAO1; combination with Clindamycin): Additive (An FIC index of ≤0.5, 0.5<x≤4, or >4 denotes for synergistic, additive or antagonistic interaction, respectively)
FIC index (P. aeruginosa PAO1; combination with Doripenem): 1.00
Interpretation (P. aeruginosa PAO1; combination with Doripenem): Additive (An FIC index of ≤0.5, 0.5<x≤4, or >4 denotes for synergistic, additive or antagonistic interaction, respectively)
FIC index (P. aeruginosa PAO1; combination with Doxycycline): 0.53
Interpretation (P. aeruginosa PAO1; combination with Doxycycline): Additive (An FIC index of ≤0.5, 0.5<x≤4, or >4 denotes for synergistic, additive or antagonistic interaction, respectively)
FIC index (P. aeruginosa PAO1; combination with Fosfomycin): 0.56
Interpretation (P. aeruginosa PAO1; combination with Fosfomycin): Additive (An FIC index of ≤0.5, 0.5<x≤4, or >4 denotes for synergistic, additive or antagonistic interaction, respectively)
FIC index (P. aeruginosa PAO1; combination with Gentamicin): 2.01
Interpretation (P. aeruginosa PAO1; combination with Gentamicin): Additive (An FIC index of ≤0.5, 0.5<x≤4, or >4 denotes for synergistic, additive or antagonistic interaction, respectively)
FIC index (P. aeruginosa PAO1; combination with Linezolid): 0.53
Interpretation (P. aeruginosa PAO1; combination with Linezolid): Additive (An FIC index of ≤0.5, 0.5<x≤4, or >4 denotes for synergistic, additive or antagonistic interaction, respectively)
FIC index (P. aeruginosa PAO1; combination with Meropenem): 1.00
Interpretation (P. aeruginosa PAO1; combination with Meropenem): Additive (An FIC index of ≤0.5, 0.5<x≤4, or >4 denotes for synergistic, additive or antagonistic interaction, respectively)
FIC index (P. aeruginosa PAO1; combination with Minocycline): 0.62
Interpretation (P. aeruginosa PAO1; combination with Minocycline): Additive (An FIC index of ≤0.5, 0.5<x≤4, or >4 denotes for synergistic, additive or antagonistic interaction, respectively)
FIC index (P. aeruginosa PAO1; combination with Moxifloxacin): 0.75
Interpretation (P. aeruginosa PAO1; combination with Moxifloxacin): Additive (An FIC index of ≤0.5, 0.5<x≤4, or >4 denotes for synergistic, additive or antagonistic interaction, respectively)
FIC index (P. aeruginosa PAO1; combination with Novobiocin): 0.50
Interpretation (P. aeruginosa PAO1; combination with Novobiocin): Synergy (An FIC index of ≤0.5, 0.5<x≤4, or >4 denotes for synergistic, additive or antagonistic interaction, respectively)
FIC index (P. aeruginosa PAO1; combination with Piperacillin): 1.00
Interpretation (P. aeruginosa PAO1; combination with Piperacillin): Additive (An FIC index of ≤0.5, 0.5<x≤4, or >4 denotes for synergistic, additive or antagonistic interaction, respectively)
Interpretation (P. aeruginosa PAO1; combination with Pleuromutilin): Additive (An FIC index of ≤0.5, 0.5<x≤4, or >4 denotes for synergistic, additive or antagonistic interaction, respectively)
FIC index (P. aeruginosa PAO1; combination with Rifampicin): 0.31
Interpretation (P. aeruginosa PAO1; combination with Rifampicin): Synergy (An FIC index of ≤0.5, 0.5<x≤4, or >4 denotes for synergistic, additive or antagonistic interaction, respectively)
FIC index (P. aeruginosa PAO1; combination with Streptomycin): 1.00
Interpretation (P. aeruginosa PAO1; combination with Streptomycin): Additive (An FIC index of ≤0.5, 0.5<x≤4, or >4 denotes for synergistic, additive or antagonistic interaction, respectively)
FIC index (P. aeruginosa PAO1; combination with Tobramycin): 1.01
Interpretation (P. aeruginosa PAO1; combination with Tobramycin): Additive (An FIC index of ≤0.5, 0.5<x≤4, or >4 denotes for synergistic, additive or antagonistic interaction, respectively)
FIC index (P. aeruginosa PAO1; combination with Trimethoprim): 0.62
Interpretation (P. aeruginosa PAO1; combination with Trimethoprim): Additive (An FIC index of ≤0.5, 0.5<x≤4, or >4 denotes for synergistic, additive or antagonistic interaction, respectively)
FIC index (P. aeruginosa PAO1; combination with Vancomycin): 0.51
Interpretation (P. aeruginosa PAO1; combination with Vancomycin): Additive (An FIC index of ≤0.5, 0.5<x≤4, or >4 denotes for synergistic, additive or antagonistic interaction, respectively)
MIC of adjuvant in combo (P. aeruginosa PAO1; in combination with Aztreonam): (8)
MIC of adjuvant in combo (P. aeruginosa PAO1; in combination with Ceftazidime): (8)
MIC of adjuvant in combo (P. aeruginosa PAO1; in combination with Chloramphenicol): (4)
MIC of adjuvant in combo (P. aeruginosa PAO1; in combination with Ciprofloxacin): (8)
MIC of adjuvant in combo (P. aeruginosa PAO1; in combination with Clindamycin): (8)
MIC of adjuvant in combo (P. aeruginosa PAO1; in combination with Doripenem): (8)
MIC of adjuvant in combo (P. aeruginosa PAO1; in combination with Doxycycline): (8)
MIC of adjuvant in combo (P. aeruginosa PAO1; in combination with Fosfomycin): (8)
MIC of adjuvant in combo (P. aeruginosa PAO1; in combination with Gentamicin): (0.25)
MIC of adjuvant in combo (P. aeruginosa PAO1; in combination with Linezolid): (8)
MIC of adjuvant in combo (P. aeruginosa PAO1; in combination with Meropenem): (8)
MIC of adjuvant in combo (P. aeruginosa PAO1; in combination with Minocycline): (8)
MIC of adjuvant in combo (P. aeruginosa PAO1; in combination with Moxifloxacin): (8)
MIC of adjuvant in combo (P. aeruginosa PAO1; in combination with Novobiocin): (4)
MIC of adjuvant in combo (P. aeruginosa PAO1; in combination with Piperacillin): (8)
MIC of adjuvant in combo (P. aeruginosa PAO1; in combination with Pleuromutilin): (8)
MIC of adjuvant in combo (P. aeruginosa PAO1; in combination with Rifampicin): (4)
MIC of adjuvant in combo (P. aeruginosa PAO1; in combination with Streptomycin): (8)
MIC of adjuvant in combo (P. aeruginosa PAO1; in combination with Tobramycin): (0.25)
MIC of adjuvant in combo (P. aeruginosa PAO1; in combination with Trimethoprim): (8)
MIC of adjuvant in combo (P. aeruginosa PAO1; in combination with Vancomycin): (8)

colistin [reference compound]
% Hemolysis at 512 μg/mL of polymyxin (pig erythrocytes): 1.6 ± 0.5%
MHC5, minimum concentration that resulted in 5% red blood cell hemolysis (pig erythrocytes): >512 µg/mL
hemolytic activity (pig erythrocytes; up to the highest concentration tested of 512 μg/mL): no hemolytic activity
